Data set [1] concerns xylene-induced swelling of the mouse right ear (二甲苯所致的小鼠右耳肿胀). In words: 二甲苯致小鼠耳肿胀抗炎试验 (xylene-induced mouse ear swelling test). The data set is classed as in vivo. As to conditions: oral gavage; for inhibition of xylene-induced right ear swelling (in words) / swelling degree compared with aspirin (in words): used alone, 10mg/kg; for swelling degree compared with aspirin (in words): versus aspirin 150mg/kg.

Data set [2] has as its system Hep-2 cells (Hep-2细胞). Type of data set: cell-based. The conditions noted are these: 3 days, MTT.

Structures are written as SMILES.

Consider `C[C@]12CC[C@H](O)C[C@H]1CC[C@@H]1[C@@H]2CC[C@]2(C)[C@@H](c3ccc(=O)oc3)CC[C@]12O` [蟾毒灵], for which, in data set [1] (5 days), the “inhibition of xylene-induced right ear swelling (in words)” value (from here on “inhibition”) was “能够抑制二甲苯所致的小鼠右耳肿胀” and the “swelling degree compared with aspirin (in words)” value is given as “肿胀度大于阳性对照药阿司匹林”. For the same molecule, in data set [2], the “CC50 compared with the three-component combination (in words)” value was “远远小于蟾毒灵、酯蟾毒配基以及远华蟾蜍精三者的组合”.

As for `C[C@]12CC[C@H](O)C[C@@]1(O)CC[C@@H]1[C@@H]2CC[C@]2(C)[C@@H](c3ccc(=O)oc3)CC[C@]12O` [远华蟾蜍精], in data set [1] (5 days), the “inhibition” value is reported as “能够抑制二甲苯所致的小鼠右耳肿胀” and the “swelling degree compared with aspirin (in words)” value is reported as “肿胀度大于阳性对照药阿司匹林”. Further, in data set [2], the “CC50 compared with the three-component combination (in words)” value is given as “远远小于蟾毒灵、酯蟾毒配基以及远华蟾蜍精三者的组合”.

On to `C[C@]12CC[C@H](O)C[C@H]1CC[C@@H]1[C@@H]2CC[C@]2(C)[C@@H](c3ccc(=O)oc3)C[C@H]3O[C@]132` [酯蟾毒配基], for which, in data set [1] (5 days), the “inhibition” value was “能够抑制二甲苯所致的小鼠右耳肿胀” and the “swelling degree compared with aspirin (in words)” value is listed as “肿胀度大于阳性对照药阿司匹林”. The “CC50 compared with the three-component combination (in words)” value in data set [2] is recorded as “远远小于蟾毒灵、酯蟾毒配基以及远华蟾蜍精三者的组合”.

The molecule `CC(=O)Oc1ccccc1C(=O)O` [阿司匹林, reference compound] came in with a swelling degree in data set [1] (aspirin 150mg/kg, once daily for 5 days, xylene 50μL on right ear 1h after last dose, ears weighed 1h later) of 8.56 mg. The “anti-inflammatory effect compared between aspirin and test substances (in words)” value in data set [1] (aspirin 150mg/kg, test substances 10mg/kg, 5 days) is reported as “优于蟾毒灵、酯蟾毒配基或远华蟾蜍精”.
